From paper PMC5392761, “Discovery of Antimalarial Azetidine-2-carbonitriles That Inhibit P. falciparum Dihydroorotate Dehydrogenase” (ACS Medicinal Chemistry Letters, 2017)

Assay: Mouse pharmacokinetics assay (IV and PO)
Assay type: in vivo, CD-1 mice
Conditions: mice

- bioavailability (female, CD-1, mouse, in vivo, PO 5 mg/kg, IV 1 mg/kg, read-out: F, bioavailability): 94%
- C0, initial serum concentration at t = 0 (IV 1 mg/kg): 4.9 µM
- Vss, volume of distribution at steady state (IV 1 mg/kg): 0.37 L/kg
- Cmax (PO 5 mg/kg, read-out: Cmax, peak serum concentration): 16.9 µM
- DNAUC0-inf, dose-normalized area under the plasma concentration vs time curve (following PO dosing 5 mg/kg): >54.3 µM·h
Structure (SMILES): CCCNC(=O)N1[C@H](C#N)[C@H](c2ccc(-c3ccc(C(F)(F)F)c(C(F)(F)F)c3)cc2)[C@H]1CO [Compound 27]
